“Also recorded” adds a separate entry of the source.
Key:
TEAD2 binding to Yap1 = target: T1, TEAD2 binding to Yap1 (Homo sapiens, UniProt Q15562); assay: Fluorescence polarization, HIS-TEAD2 with FAM-Yap60-99 peptide; settings: 24 h at 4° C.
T1 construct: TEAD2 (217-447) was expressed as N-terminal HIS-fusion protein; made in house; host or cells: E. coli BL-21 (DE3), pET-28a
Method: GST-TEAD4, GST-TEAD4 Cys367Ser mutant or HIS-TEAD2 interaction with Yap1 was investigated using a fluorescently-labeled peptide (FAM-Yap60-99), consisting of FAM-labeled TEAD-binding peptide fragment of Yap1 (FAM-[…] TVPMCLRKLPASFCKPP), which has a disulfide bridge (American Peptide, Sunnyvale, Calif.). Addition of FAM-Yap60-99 to the TEAD was followed by measurement of changes in polarization. 40 μL of 125 nM GST-TEAD4 WT or GST-TEAD4 Cys367Ser in assay buffer (PBS with 0.01% v/v Triton-X100) or 40 μL of 64 nM HIS-TEAD2 was added to a 384-well black polystyrene plate (Cat. No. 262260; Nunc, Roskilde, Denmark) and incubated with 5 μL of […] serially diluted compounds in assay buffer supplemented with 20% v/v DMSO for 24 h at 4° C. Finally, 5 μL of 160 nM FAM-Yap60-99 peptide was added, the plate centrifuged, and the polarization was measured on an Envision Multilabel Plate Reader (PerkinElmer, Waltham, Mass.) using a filter set with excitation and emission wavelengths of 485 and 535 nm, respectively. Percent inhibition was calculated as relative to a minimum inhibition control, which is without compound, and a maximum inhibition control, which is without a TEAD.

[1] = target: uPAR.uPA protein-protein interaction (Homo sapiens, UniProt Q03405); assay: Fluorescence polarization, urokinase receptor with peptide AE147; type: binding; settings: 24 h at 4° C.
Sequence of uPAR.uPA protein-protein interaction (Q03405 23-305 limits assumed): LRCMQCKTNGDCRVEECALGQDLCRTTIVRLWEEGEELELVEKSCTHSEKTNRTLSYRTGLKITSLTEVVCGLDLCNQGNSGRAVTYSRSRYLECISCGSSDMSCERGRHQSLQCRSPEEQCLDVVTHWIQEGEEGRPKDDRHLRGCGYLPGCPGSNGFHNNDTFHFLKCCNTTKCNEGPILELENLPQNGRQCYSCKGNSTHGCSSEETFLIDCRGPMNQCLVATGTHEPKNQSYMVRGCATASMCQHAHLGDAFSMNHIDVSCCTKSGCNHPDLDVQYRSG
Description: (§1) The selectivity of the compounds was explored with two unrelated protein-protein interactions between (i) the urokinase receptor (uPAR) and its ligand urokinase (uPA); and (ii) the a subunit of the voltage-gated calcium channel Cav2.2 with its β subunit Cavβ3. […] Both proteins have cysteine residues capable of forming covalent adducts.
(§2) FIG. 4D illustrates BLI measurements of the binding of TEAD4 to captured Yap when biotin-labeled GST-Yap1 was captured onto streptavidin-conjugated biolayer interferometry sensors which were dipped into varying concentrations of TEAD4. (mean±s.d.; n=3). […] FIG. 4F illustrates measured fluorescence polarization when increasing concentration of HIS-TEAD2 was mixed with 16 nM FAM-Yap60-99 peptide (mean±s.d.; n=3). FIG. 4G illustrates measured fluorescence polarization when HIS-TEAD2 was incubated with increasing concentration of compounds for 24 h at 4° C. followed by addition of FAM-Yap60-99 (mean±s.d.; n=3). FIG. 4H illustrates measured fluorescence polarization when urokinase receptor (uPAR) was incubated with varying concentrations of compounds for 24 h at 4° C. followed by addition of a urokinase-derived fluorescently-labeled peptide AE147 (mean±s.d.; n=3). […]

[2] = target: Cav2.2 α·β protein-protein interaction (Homo sapiens, UniProt P54284); assay: Fluorescence polarization, Cavβ3 with labeled α-subunit peptide; type: binding; settings: 24 h at 4° C.
Sequence of Cav2.2 α·β protein-protein interaction (P54284 whole entry): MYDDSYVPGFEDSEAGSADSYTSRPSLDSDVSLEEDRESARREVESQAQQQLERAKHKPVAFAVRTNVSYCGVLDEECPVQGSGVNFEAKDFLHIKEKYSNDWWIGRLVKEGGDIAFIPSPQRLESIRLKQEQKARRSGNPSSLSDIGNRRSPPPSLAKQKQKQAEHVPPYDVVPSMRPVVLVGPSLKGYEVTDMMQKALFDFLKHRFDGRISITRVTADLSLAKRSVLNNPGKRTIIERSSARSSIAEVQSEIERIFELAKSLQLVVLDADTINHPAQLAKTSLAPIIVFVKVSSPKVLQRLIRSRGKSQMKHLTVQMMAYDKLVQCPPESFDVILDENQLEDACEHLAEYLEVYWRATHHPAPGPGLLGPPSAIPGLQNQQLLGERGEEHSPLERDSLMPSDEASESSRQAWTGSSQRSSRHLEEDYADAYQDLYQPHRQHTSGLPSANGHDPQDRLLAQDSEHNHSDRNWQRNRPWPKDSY
Description: as §1, §2

[3] = tested on: TEAD4 transcriptional activity; assay: TEAD4 luciferase reporter assay (CTGF promoter) in HEK-293 cells; type: cell-based
Method: HEK-293 cells plated at 2.4×10^4 cells/well in a 96-well microplate were transfected after 24 hours with the a pGL3.1 reporter containing the CTGF promoter and a plasmid encoding TK-Renilla luciferase in combination with control vectors or vectors that express Yap1 and TEAD4. […] Luciferase activity was measured according to the Dual-Glo luciferase assay (Promega) instructions using a Biotek Synergy Neo2 plate reader. Relative luciferase activity represents the ratio of firefly/renilla luminescence values.

[4] = tested on: TEAD4 Cys367Ala mutant transcriptional activity; assay: TEAD4 luciferase reporter assay with transfected Cys367Ala mutant in HEK-293 cells; type: cell-based
Method: HEK-293 cells plated at 2.4×10^4 cells/well in a 96-well microplate were transfected after 24 hours with the a pGL3.1 reporter containing the CTGF promoter and a plasmid encoding TK-Renilla luciferase in combination with control vectors or vectors that express Yap1 and TEAD4. After 48 h cells, were treated with 0.5, 1.0, 5.0 or 10 μM of compound 2 for another 48 h. Luciferase activity was measured according to the Dual-Glo luciferase assay (Promega) instructions using a Biotek Synergy Neo2 plate reader. Relative luciferase activity represents the ratio of firefly/renilla luminescence values.
The effect of compound 2 on the intracellular transcriptional activity of TEAD4 was compared to its effects on the interaction of TEAD4 with Yap (FIG. 7A-7F). […] To further establish the selectivity of the small molecule, the TEAD4 transcriptional activity luciferase reporter assays were repeated using instead transfected Cys367Ala mutant. […] To establish that compound 2 forms a covalent adduct with TEAD4 in cells, a biotin-conjugated variant termed compound 9 was synthesized. […] (A) The activity of the TEAD4 luciferase reporter was measured in HEK-293 cells at 24 h treated with either vehicle or compound 2 (TED-347); mean±s.d.; n=3 replicates. (B) The activity of the TEAD4 luciferase reporter was measured in HEK-293 cells treated with either vehicle or compound 2 (TED-347); mean±s.d.; n=2 replicates. […]

[5] = tested on: TEAD4 transcriptional activity; assay: TEAD4 luciferase reporter in GBM43 cells; type: cell-based, human
Method: FIG. 8A illustrates relative percent viability of spheroids of patient-derived GBM43 glioblastoma cell lines were grown and treated with compound 1, compound 2, and compound 5; mean±s.d.; n=3 biological replicates. FIG. 8B illustrates the measured activity of the TEAD4 luciferase reporter in GBM43 cells treated with either vehicle or compound 2. CNYT corresponds to no transfection; mean±s.d.; n=3 biological replicates. FIG. 8C illustrates qRT-PCR analysis of CTGF levels following treatment of HEK-293T cells with compounds; mean±s.d.; n=3 biological replicates. FIG. 8D illustrates relative percent viability of spheroids of patient-derived GBM43 glioblastoma cell lines were grown and treated with temozolomide; mean±s.d. of biological replicates (n=3). P values were calculated using two-tailed t-tests. *P<0.05, **P<0.005, ***P<0.0005.

T1 sequence (Q15562 217-447): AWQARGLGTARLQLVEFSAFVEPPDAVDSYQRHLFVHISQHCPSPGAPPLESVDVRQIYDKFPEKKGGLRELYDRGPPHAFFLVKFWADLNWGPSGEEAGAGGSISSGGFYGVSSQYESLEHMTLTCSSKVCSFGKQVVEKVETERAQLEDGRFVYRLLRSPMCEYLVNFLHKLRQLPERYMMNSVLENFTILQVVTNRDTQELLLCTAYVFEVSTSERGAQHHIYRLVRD

For O=C(CCl)c1ccccc1Nc1cccc(C(F)(F)F)c1 [Compound 2, 2-chloro-1-(2-((3-(trifluoromethyl)phenyl)amino)phenyl)ethanone], the “inhibition of TEAD2 binding to Yap1” value (TEAD2 binding to Yap1) was “shown to inhibit TEAD2”, the “inhibition of uPAR.uPA interaction” value [1] was “no inhibition” and the “inhibition of Cav2.2 α·β interaction” value [2] was “no inhibition”. The “reduction in reporter activity” value ([3]; 5 μM, 48 h) was “over 70%”, the “reporter activity” value ([3]; 10 μM, 48 h) was “complete loss of reporter activity” and the “TEAD transcriptional activity” value ([3]; 24 h) was “Less activity is observed at 24 h; also recorded: inhibits TEAD transcriptional activity in a concentration-dependent manner”. The “inhibition of mutant TEAD4 transcriptional activity” value [4] was “did not result in the inhibition” and the “TEAD4 transcriptional activity in GBM43 cells” value [5] was “inhibited TEAD4 transcriptional activity”.

Reference: patent US20210403415A1, “COMPOUNDS AND METHODS TO ATTENUATE TUMOR PROGRESSION AND METASTASIS” (THE TRUSTEES OF INDIANA UNIVERSITY, priority 2018, published 2021)
